According to publication PMC12339163, “Combining Plant Bioactives With Antibiotics for Enhanced Antibiofilm Activity Against Uropathogenic Staphylococcus spp. and Cytotoxicity Evaluation” (Advances in Pharmacological and Pharmaceutical Sciences, 2025):
In brackets after ≈: the same amount, converted by molar mass. Several values for one entry are separate records, joined by “and”; a condition that tells them apart may be missing. Equal values may be shown once. Read-outs that look alike come from different tables or passages of the source.

Columns and labels:
S. saprophyticus biofilm [1] = assay: Biofilm eradication assay (MBEC, MTT); format: cell-based, Staphylococcus saprophyticus; conditions: geometric mean, S. saprophyticus (n = 3); for minimal effective concentration: Staphylococcus saprophyticus, 24 h
Experimental: (§1) The determination of the biofilm eradication potential of NPs and ATBs was performed as previously described. Briefly, 100 µL of bacterial inoculum (1.5 × 10^6 CFU/mL) and 100 µL of MHB + 1% glucose were introduced into the microplate, incubated at 37°C for 24 h, and the microplate was gently emptied and washed three times with PBS. Then, 200 µL of ATBs or NPs at respective concentrations ranging from 8 to 1024 µg/mL and from 16 to 2048 µg/mL were incubated at 37°C for 24 h. Once incubation was completed, the microplate was processed as described above, and the percentage of biofilm eradication was calculated using the formula below. The minimal biofilm eradicating concentration (MBEC) was recorded as the lowest concentration of the test sample that reduces 100% of biofilm:(2) % biofilm eradication=ODcontrol−ODblank−ODtest−ODblank/ODcontrol−ODblank×100.

[2] = test system: Staphylococcus aureus biofilm; assay: Checkerboard combination assay, biofilm inhibition; format: cell-based
Experimental: (§2) The effect of the combination of ATBs with NPs on biofilm formation was evaluated by determining the FICI, as described above for planktonic cells, except that the MHB was supplemented with 1% glucose.
(§3) The lowest MBICs of ATBs or NPs that inhibited metabolic activity in the biofilm were determined as described above. The FICI was used to perform the effect of combination and calculated as follows: FICI: (MBIC of ATBs in combinations/MBIC of ATBs alone) + (MBIC of NP in the combinations/MBIC of NP alone). FICI was interpreted as indicated above.

[3] = test system: Staphylococcus saprophyticus biofilm; assay: Checkerboard combination assay, biofilm inhibition; format: cell-based
Experimental: as §2, §3

[4] = test system: Staphylococcus epidermidis biofilm; assay: Checkerboard combination assay, biofilm inhibition; format: cell-based
Experimental: as §2, §3

S. aureus biofilm = assay: Biofilm inhibition assay (MBIC, MTT); format: cell-based, Staphylococcus aureus; conditions: geometric mean, S. aureus (n = 3); for minimal effective concentration: Staphylococcus aureus, 24 h
Experimental: (§4) The biofilm formation inhibitory activity of NPs and ATBs was carried out according to the method previously described. A total of 100 µL of bacterial inoculum (1.5 × 10^6 CFU/mL) was used, and 100 µL of each sample was added to the microplate to achieve final concentrations ranging from 0.25 µg/mL to 128 µg/mL for ATBs and from 8 µg/mL to 1024 µg/mL for NPs. Then, the microplate was incubated at 37°C for 24 h. After incubation, the plates were gently emptied and washed three times with a phosphate buffer solution at pH 7.2. Then, the MTT solution (0.5 mg/mL) prepared in PBS was introduced into each well, and the microplate was further incubated at 37°C for 24 h. Untreated wells containing bacterial suspension and MHB supplemented with 1% glucose were considered positive controls, and wells containing only MHB+1% glucose without bacteria were used as blanks. After incubation, the MTT solution was aspirated, then 150 µL of DMSO was introduced to dissolve the formazan crystal formed by viable bacteria, and the optical density (OD) was measured at 570 nm using a microplate reader (VERSA-max). The percentage of biofilm inhibition was calculated using the formula below, and the minimal biofilm inhibitory concentration (MBIC) was recorded as the lowest concentration of NPs or ATBs that inhibited 100% of biofilm:(1) % biofilm inhibition=ODcontrol−ODblank−ODtest−ODblank/ODcontrol−ODblank×100.

S. epidermidis biofilm [5] = assay: Biofilm eradication assay (MBEC, MTT); format: cell-based, Staphylococcus epidermidis; conditions: geometric mean, S. epidermidis (n = 3); for minimal effective concentration: Staphylococcus epidermidis, 24 h
Experimental: as §1

S. aureus = assay: MIC and MBC, broth microdilution; format: cell-based, Staphylococcus aureus; conditions: geometric mean, S. aureus (n = 3)
Experimental: Seven clinical isolates of Staphylococcus spp. including 2 S. aureus, 3 S. saprophyticus, and 2 S. epidermidis were used. They were isolated from urine samples in our previous study. Two reference strains (S. aureus ATCC1026 and S. epidermidis ATCC35984) obtained from the American Type Culture Collection were also included. They were kept in the mixture of glycerol and Mueller Hinton Broth (MHB) (1:1) at −20°C, and the activation was achieved using the streak technique on Mueller Hinton agar (MHA) medium.
The MICs of ATBs and NPs were determined by the broth microdilution method as previously described. NPs and ATBs were, respectively, prepared at 4096 µg/mL and 512 µg/mL and serially diluted twofold with MHB in a 96-well microplate at a volume of 100 µL. Then, the wells were filled with 100 µL of inoculum (1.5 × 10^6 CFU/mL) to give final concentrations ranging from 1024 µg/mL to 0.5 µg/mL and 128 µg/mL to 0.062 µg/mL of NPs and ATBs, respectively. The microplates were incubated for 24 h at 37°C. Wells containing only bacterial inoculum were used as the negative control. After incubation, a volume of 40 µL of INT solution (0.2 mg/mL) was added to each well, and the microplate was incubated at 37°C for 30 min. Viable bacteria cells change the yellow dye of INT to a pink color. The MIC was considered as the lowest concentration of the sample at which there was no change in the coloration of the medium, corresponding to the complete inhibition of microbial growth.
All tests were performed in triplicate.

S. saprophyticus biofilm [6] = assay: Biofilm inhibition assay (MBIC, MTT); format: cell-based, Staphylococcus saprophyticus; conditions: geometric mean, S. saprophyticus (n = 3); for minimal effective concentration: Staphylococcus saprophyticus, 24 h
Experimental: as §4

S. epidermidis biofilm [7] = assay: Biofilm inhibition assay (MBIC, MTT); format: cell-based, Staphylococcus epidermidis; conditions: geometric mean, S. epidermidis (n = 3); for minimal effective concentration: Staphylococcus epidermidis, 24 h
Experimental: as §4

[8] = antibiotic alone, S. aureus biofilm inhibition
[9] = S. saprophyticus, biofilm inhibition, mean
[10] = antibiotic alone, S. saprophyticus biofilm inhibition
[11] = S. epidermidis, biofilm inhibition, mean
[12] = antibiotic alone, S. epidermidis biofilm inhibition
[13] = Staphylococcus aureus, antibiotics, read-out: MBC
[14] = Staphylococcus aureus, read-out: MIC
[15] = Staphylococcus aureus, natural products, read-out: MBC
[16] = S. aureus, biofilm inhibition, mean
[17] = natural product alone, S. epidermidis biofilm inhibition

SMILES | MIC (S. aureus; [14]) [µg/mL] | minimal effective concentration (S. saprophyticus biofilm [1]) [µg/mL] | MBIC alone, ATB [2, 8] [µg/mL] | MBIC alone, ATB [3, 9] [µg/mL] | MBIC alone, ATB [3, 10] [µg/mL] | MBIC alone, ATB [4, 11] [µg/mL] | MBIC alone, ATB [4, 12] [µg/mL] | minimal effective concentration (S. aureus biofilm) [µg/mL] | minimal effective concentration (S. epidermidis biofilm [5]) [µg/mL] | MBC (S. aureus; [13]) [µg/mL] | minimal effective concentration (S. saprophyticus biofilm [6]) [µg/mL] | minimal effective concentration (S. epidermidis biofilm [7]) [µg/mL] | MBC (S. aureus; [15]) [µg/mL] | MBIC alone, NPs [3, 9] [µg/mL] | also measured
O=c1c(O)c(-c2ccc(O)c(O)c2)oc2cc(O)cc(O)c12 [Quercetin, quercetin] | 341 (≈ 1130 µM) | 171 | – | – | – | – | – | 512 | 299 | – | 427 | 512 | > 1020 | – | MBIC alone, NPs ([2]; natural product alone, S. aureus biofilm inhibition, listed as Que): 426.66 µg/mL and 512 µg/mL and 362.66 µg/mL; MBIC alone, NPs ([3]; natural product alone, S. saprophyticus biofilm inhibition, listed as Que): 426.66 µg/mL and 512 µg/mL; MBIC alone, NPs ([4]; natural product alone, S. epidermidis biofilm inhibition, listed as Que): 512 µg/mL and 384 µg/mL
C=CC1=C(C(=O)O)N2C(=O)[C@@H](NC(=O)/C(=N\OCC(=O)O)c3csc(N)n3)[C@H]2SC1 [Cefixime, cefixime] | 213 (≈ 470 µM) | 48 | 64 | – | 48 | – | 64 | 64 | 42.7 | > 128 | 48 | 64 | – | – | –
NC[C@H]1O[C@H](O[C@H]2[C@H](O)[C@@H](O[C@H]3O[C@H](CO)[C@@H](O)[C@H](N)[C@H]3O)[C@H](N)C[C@@H]2N)[C@H](O)[C@@H](O)[C@@H]1O [Kanamycin, kanamycin] | – | – | 1.83 | 4.08 | 4.083 | 24.66 | – | – | – | – | – | – | – | – | MBEC (S. saprophyticus biofilm [1]): 10.66 µg/mL; MBIC alone, ATB ([4]; antibiotic alone, S. epidermidis biofilm inhibition, listed as Kan): 24.66 µg/mL and 43.33 µg/mL; MBIC (S. aureus biofilm): 1.08 µg/mL; MBEC (S. epidermidis biofilm [5]): 13.33 µg/mL; MBC (S. aureus; antibiotics): 69.33 µg/mL (≈ 143 µM); MIC (S. aureus): 22.66 µg/mL (≈ 46.8 µM); MBIC (S. saprophyticus biofilm [6]): 4.08 µg/mL; MBIC (S. epidermidis biofilm [7]): 24.66 µg/mL
CC1=CC(=O)c2c(O)cccc2C1=O [Plumbagin, plumbagin] | 6 (≈ 31.9 µM) | 10.7 | – | – | – | – | – | 10.7 | 10.7 | – | 6.66 | 8 | > 1020 | 16 | MBIC alone, NPs [2, 16]: 10.66 µg/mL; MBIC alone, NPs ([2]; natural product alone, S. aureus biofilm inhibition, listed as Pb): 10.66 µg/mL; MBIC alone, NPs ([3]; natural product alone, S. saprophyticus biofilm inhibition): 6.66 µg/mL; MBIC alone, NPs [4, 11]: 8 µg/mL; MBIC alone, NPs [4, 17]: 8 µg/mL
COc1cc(/C=C/C(=O)CC(=O)/C=C/c2ccc(O)c(OC)c2)ccc1O [Curcumin, curcumin] | – | 171 | – | – | – | – | – | 107 | 107 | – | 107 | 128 | > 1020 | 106.66 | MBIC alone, NPs [4, 11]: 128 µg/mL; MBIC alone, NPs [4, 17]: 128 µg/mL; MIC (S. aureus; Staphylococcus aureus, 24 h, read-out: MIC): 244 µg/mL (≈ 661 µM)

Continued, in another order:

MIC (S. aureus; [14]) [µg/mL] | SMILES | minimal effective concentration (S. saprophyticus biofilm [1]) [µg/mL] | MBIC alone, ATB [2, 8] [µg/mL] | MBIC alone, ATB [3, 9] [µg/mL] | MBIC alone, ATB [3, 10] [µg/mL] | MBIC alone, ATB [4, 11] [µg/mL] | MBIC alone, ATB [4, 12] [µg/mL] | minimal effective concentration (S. aureus biofilm) [µg/mL] | minimal effective concentration (S. epidermidis biofilm [5]) [µg/mL] | MBC (S. aureus; [13]) [µg/mL] | minimal effective concentration (S. saprophyticus biofilm [6]) [µg/mL] | minimal effective concentration (S. epidermidis biofilm [7]) [µg/mL] | MBC (S. aureus; [15]) [µg/mL] | MBIC alone, NPs [3, 9] [µg/mL] | also measured
86.7 (≈ 237 µM) | CC1(C)S[C@@H]2[C@H](NC(=O)[C@H](N)c3ccc(O)cc3)C(=O)N2[C@H]1C(=O)O [Amoxicillin, amoxicillin] | 9.33 | 1.5 | 8.33 | 8.33 | 2.08 | 2.08 | 1.5 | 16 | > 128 | 9 | 2.08 | – | – | –
6.16 (≈ 13.9 µM) | C[C@H]1c2cccc(O)c2C(=O)C2=C(O)[C@]3(O)C(=O)C(C(N)=O)=C(O)[C@@H](N(C)C)[C@@H]3[C@@H](O)[C@@H]21 [Doxycycline, doxycycline] | 9.33 | 2.16 | 0.5 | 0.5 | – | – | 2.16 | 16 | 32.7 (≈ 73.5 µM) | 0.5 | 3.08 | – | – | MBIC alone, ATB ([4]; antibiotic alone, S. epidermidis biofilm inhibition, listed as Dox): 3.08 µg/mL and 3.41 µg/mL
42.7 (≈ 93.9 µM) | Cc1nnc(SCC2=C(C(=O)O)N3C(=O)[C@@H](NC(=O)Cn4cnnn4)[C@H]3SC2)s1 [Cefazolin, cefazolin] | 10.7 | 4.66 | 8.33 | 8.33 | 8.66 | 8.66 | 4.66 | 10.7 | > 128 | 8.53 | 8.66 | – | – | MBIC alone, ATB [2, 16]: 4.66 µg/mL
4.33 (≈ 7.39 µM) | NCC[C@H](O)C(=O)N[C@@H]1C[C@H](N)[C@@H](O[C@H]2O[C@H](CN)[C@@H](O)[C@H](O)[C@H]2O)[C@H](O)[C@H]1O[C@H]1O[C@H](CO)[C@@H](O)[C@H](N)[C@H]1O [Amikacin, amikacin] | 13.3 | 1.83 | 2.08 | 2.08 | 3.08 | 3.08 | 1.83 | 21.3 | > 128 | 2.08 | 3.08 | – | – | MBIC alone, ATB [2, 16]: 1.83 µg/mL
139 | COc1ccc2cc3[n+](cc2c1OC)CCc1cc2c(cc1-3)OCO2 [Berberine, berberine] | 171 | – | – | – | – | – | 171 | 171 | – | 85.3 | – | > 1020 | 106.66 | MBIC alone, NPs ([2]; natural product alone, S. aureus biofilm inhibition): 170.66 µg/mL; MBIC alone, NPs ([3]; natural product alone, S. saprophyticus biofilm inhibition, listed as Ber): 74.66 µg/mL and 85.33 µg/mL and 106.66 µg/mL
